Measured values as given in patent publication US20150030542A1, “METHODS FOR MEDICAL IMAGING” (priority 2013, published 2015).

Tests used:
[1] = in vivo, cited from earlier work
[2] = test system: human tumors; experiment: Ex vivo analysis of tumor fluorescence of resected specimens (NIR imaging, hand-held spectrometer); format: in vivo
From the text: Following in vivo imaging, the patients then underwent a standard-of-care surgical resection of the tumor. Once removed from the patient, the specimen was examined, opened, biopsied and analyzed ex vivo (FIG. 2a). Every case was photo-documented both by brightfield imaging and NIR imaging. […] Then, the hand held spectrometer was used to semi-quantitate tissue fluorescence. Each tumor had 4 measurements at four perpendicular locations and the center of the tumor (total of 20 measurements/tumor). Mean fluorescence in the human tumors was 53,304±4193 au in 25 out of 27 masses (93%) (FIG. 2b). We conjectured that the center of the tumor might be less fluorescent than the periphery due to necrosis or, conversely, that the center of the tumor might be more fluorescent than the periphery due to increased ICG retention. We found neither to be true. The fluorescence from the tumors was remarkably homogeneous throughout the tumor. We believe this reflects “bleed over” of the fluorescent signal from different areas of the tumor surface. The quality of the image was subjectively better ex vivo than in vivo due to the lack of respiratory motion, light artifact and glare from surrounding tissue retractors. Depending on the different tissues removed from each patient as part of the standard operation, a thorough spectroscopic examination was performed. The average signal diminished from over 50,000 au at the tumor margin to less than 12,000 au within 2 mm of the gross tumor margin. There were some higher signals in areas of atelectatic lung (range 0 to 24,832 au), however, this could easily be distinguished from the tumor by manual palpation. The background signal was measured from the patients' skin, muscles (latissmus dorsi, serratus anterior, intercostal), pericardium, normal lung, lymph nodes, adipose tissues, nerves (intercostal), airway and thymus whenever safely possible (FIG. 2b).
There were 25 cancers and 2 non-cancers (aspergilloma and pulmonary infarct). The two masses that were not fluorescent were a metastatic melanoma (7,342±411 au) and a pulmonary infarct (hematoma, 8,002±554 au). The aspergillus ball, a localized fungus infection, was fluorescent (58,209±1,302 au) likely due to the strong inflammatory reaction surrounding it. […] The pulmonary infarct or hematoma was an old clot secondary to trauma in a person that had been mistaken for a cancer on preoperative imaging. […]

[3] = Semi-quantification of ICG concentration in plasma (fluorometry); format: in vivo, human
Experimental: Techniques have been previously described to use fluorometry to quantify concentrations of ICG in plasma. We obtained aliquots of each patient's blood before injection with ICG. These samples were spun down at 1100 RPM for 10 minutes and aliquots of plasma were removed. 2 mg of ICG was dissolved in 1 ml of plasma and serially diluted thirteen times to a concentration of 125 μg per liter. 100 microliters of each of these dilutions were pipetted into a separate wells in a standard black 96 well plate along with one well of 100 microliters of plasma without ICG. At the time of operation, each patient had their plasma obtained and serially diluted six times to a final ratio of 1:1000. Plates were examined using a SpetraMax Fluorometer® with a peak excitation of 805 nm and 830 nm. Each well was scanned 6 times. Readings were export as Microsoft Excel® spread sheets.

[4] = test system: human tumors; experiment: Semi-quantification of ICG concentration in tumors (imaging beside ICG standard panel); format: in vivo
Experimental: To quantify the concentration of ICG in the resected tissues, normal (control) and cancerous tissues were imaged ex vivo alongside a standard control panel of known concentrations of ICG aliquots mixed with plasma from the same patient. Our system was able to detect concentrations between 0 μg/ml and 2000 μg/ml. […] However, in the tumors, there was a broad range of ICG concentration. In 9 of the 10 specimens, the ICG concentration ranged from 2 to 100 μg/ml (FIG. 3c). No tumor fluoresced above an ICG concentration of 100 μg/ml. However, from a subjective point-of-view, the surgeon was not able to identify any tumors as more or less fluorescent. One cancer (metastatic melanoma) had less than 1 μg/ml of ICG and was not subjectively fluorescent to the surgeon. We also attempted to measure ICG concentration in the tissue by homogenizing punch biopsies and measuring fluorescence in a standard desk fluorometer, however, this approach was unreliable.
To quantify the maximum concentration of ICG in each tumor, 10 patients had their plasma collected at the time of operation. Two mg of ICG was dissolved in 1 ml of plasma and serially diluted 8 times to a final ratio of 1:20,000. 100 μL of stock solution and each dilution was then placed in consecutive wells in a black 96 well plate. When tumors were imaged ex-vivo, this plate was concurrently imaged. These images were then imported into ImageJ® software. Region of interest (ROI) data was taken from each of the 9 wells and from the tumor. The maximum fluorescent signal from the tumor was compared to the wells to determine the highest concentration per tumor. Each tumor was then categorized as have an ICG concentration between given the standards in the known panel.

[5] = cited from earlier work
[6] = test system: Lewis Lung Cancer (LLC); experiment: NIR detection of flank tumors and pulmonary metastases in the LLC mouse model
Experimental: (§1) Preclinical evidence for NM tumor labeling to detect primary and metastatic tumor deposits. (A) Six cancer cell types were injected into the flank of syngeneic mice. Once established (200 mm3), animals were dosed with 7.5 mg/kg of ICG and imaged. Tumors were harvested, imaged and stained for CD31. Histology images taken at 200× magnification (B) C57bl/6 mice (n=21) were injected with LLC cells in their flanks on Day 0. Starting on Day 12, the animals were euthanized, dosed with 7.5 mg/kg ICG 20 hours earlier and their thoracic cavities opened. Observers determined if the metastatic tumor nodules were visible in the lung. NIR imaging was then used to detect disease that was not visible to the un-assisted human eye.
Starting on Day 12, mice (n=9) were injected with 7.5 mg/kg of ICG via tail vein every three days. […] Subsequently, the chest was opened and inspected for NIR emission from pulmonary metastases.
Female C57BL/6 (B6, Thy1.2), BALB/c, athymic Ncr-nu/nu and B6-12931 hybrid mice mice were purchased from Charles River Laboratories and Jackson Laboratories. All mice were maintained in pathogen-free conditions and used for experiments at ages 8 week or older. […] Tumor cells for subcutaneous injections were suspended in 100 μL PBS. Tumor volume was calculated using the formula (π×long-axis×short-axis^2)/6.
Pharmaceutical grade indocyanine green (ICG) was purchased from Akorn Pharmaceuticals (Lake Forest, Ill.). Mice received 7.5 mg/kg ICG via tail vein 20 hours prior to surgery.
A hand-held near infrared spectrometer has been previously described in detail.^18 In brief, a Raman probe detector was incorporated into a cylindrical stainless steel sampling head integrated with a 5 m, two-fiber cable; one for laser excitation and the other for light collection. The sampling head and fiber cable were coupled via an FC connector to a spectrometer. The combined sampling head and spectrometer system has a wavelength range of 800-930 nm with 0.6 nm spectral resolution for near infrared (NIR) fluorescence measurement. […] The signal can be semi-quantitated from 0 to 60,000 arbitrary units (au).

[7] = test system: chest and breast tumors; experiment: Pilot patient study: intraoperative in vivo/in situ NIR imaging of tumor fluorescence
Experimental: Between January and June 2012, 27 consecutive patients who were candidates for surgical removal of chest and breast tumors were enrolled in this study (Table 1). Patients were given a single peripheral vein injection of 5 mg/kg ICG, 24 hours prior to surgery. […] Their ages ranged from 31 to 78 years (median=65 years). […] All enrolled patients were thought to have limited disease, amenable to surgery, and had no metastases (ie. potentially curable). […] Preoperative computed axial and positron emission tomography and/or magnetic resonance imaging predicted no metastatic disease in each case. The median tumor size was 2.0 cm (range 0.6-13.0 cm) on preoperative imaging. Each patient had serum obtained before and 24 hours after ICG injection.
To determine if indocyanine green would be delivered to human tumors, patients undergoing cancer surgery were first imaged in vivo at the onset of the operation. At the time of surgery, the chest was opened and inspected by standard visualization and manual palpation. […] A dual camera head with a brightfield and a NIR output was then used to visualize tumor fluorescence (FIG. 7). […] Attempts to quantitate tumor fluorescence in vivo were not feasible for several reasons including variations in operating room conditions, lack of miniaturized tissue spectrometer with safe laser light source and the inability to control for changes in distance from the specimen to the tip of the spectrometer. […] All quantitative measurements were made later ex vivo once the specimen had been removed. To examine in vivo data on the distribution of ICG, a complete visual examination of the each patients' skin, muscles (lattismus dorsi, serratus anterior, intercostal, diaphragm), pericardium and heart, aorta, normal lung, lymph nodes, adipose tissues, nerves (phrenic, intercostal), and thymus was performed whenever possible.
Thus, prior to closing the body cavity but after the tumor was removed, the chest or breast was inspected visually and by manual palpation for sites of cancer metastases. […] Then, to validate the surgeons' clinical decision, the chest was imaged for NIR fluorescence.
The other application of tumor fluorescence during surgery was to confirm that resection was complete and that no tumor cells were left behind in the surgical field. Thus, once the surgeons had completed each case and decided they had obtained disease clearance at the surgical site, the surgical wound and resection field was imaged.

[8] = test system: 4T1 breast cancer, TC1 lung cancer, EL4 thymoma, AE17 mesothelioma, AKR esophageal cancer flank tumors; experiment: NIR labeling of syngeneic flank tumors in mice with systemic ICG (tissue spectrometer); conditions: 7.5 mg/kg ICG via tail vein, next day, flank tumors ~200 mm^3, five cell lines
Experimental: as §1
After the tumors were well established (˜200 mm^3), 7.5 mg/kg of ICG was administered via the tail vein. The next day, a tissue spectrometer was used to semi-quantitate fluorescence from the tumor, surrounding tissue and 12 organs. […] Tumors were harvested, sectioned and assayed for microvessel density to determine if there was a correlation between tumor vascularity and fluorescence (FIG. 1a).
All mice were maintained in pathogen-free conditions and used for experiments at ages 8 week or older. […] Tumor cells for subcutaneous injections were suspended in 100 μL PBS. Tumor volume was calculated using the formula (π×long-axis×short-axis^2)/6. […]

[9] = ex vivo spectroscopic examination

## CN1C(=CC=C2CCCC(C=CC3=[N+](C)c4ccccc4C3(C)C)=C2Cl)C(C)(C)c2ccccc21.[O-][Cl+3]([O-])([O-])[O-] [IR-786]
[1]; iv
  clearance after intravenous injection: rapidly extracted into many tissues in the body, especially the liver, and is inefficiently transported into bile

## CC1(C)C(/C=C/C=C/C=C/C=C2\N(CCCCS(=O)(=O)[O-])c3ccc4ccccc4c3C2(C)C)=[N+](CCCCS(=O)(=O)[O-])c2ccc3ccccc3c21.[Na+] [ICG, indocyanine green]
[2]; 25 out of 27 masses, ex vivo
  masses with strong fluorescence, qualitative NIR imaging: 92%
[2]; 25 out of 27 masses, ex vivo hand held spectrometer
  mean fluorescence in the human tumors: 53,304±4193 au
[2]; ex vivo
  fluorescence of non-fluorescent metastatic melanoma: 7,342±411 au
  mean fluorescence of highly fluorescent melanoma: 57,210 au
  mean fluorescence of minimally fluorescent melanoma in a different patient: 7,332 au
  signal in areas of atelectatic lung (range): 0 to 24,832 au
[2]; [9]
  average signal at the tumor margin: over 50,000 au
  average signal within 2 mm of the gross tumor margin: less than 12,000 au
[2]; ex vivo, localized fungus infection
  fluorescence of aspergillus ball: 58,209±1,302 au
[2]; ex vivo, non-cancer
  fluorescence of pulmonary infarct (hematoma): 8,002±554 au
[2]; skin, muscles, pericardium, normal lung, lymph nodes, adipose, nerves, airway, thymus
  background signal in surrounding tissue in the body cavity: no evidence of background signal
[3]; SpetraMax Fluorometer
  ICG in patient's plasma 24 hours after ICG injection: No measurable ICG
[3]; patients, 5 mg/kg ICG peripheral vein, fluorometric interrogation of serum
  ICG in plasma after 20 hours: no patient had detectable ICG
[4]; 9 of the 10 specimens, ex vivo
  ICG concentration in tumors: 2 to 100 µg/mL
[4]; ex vivo, 5 mg/kg ICG
  ICG concentration in control tissues of normal lung: undetectable
[4]; one cancer, not subjectively fluorescent
  ICG concentration in metastatic melanoma: less than 1 μg/ml
2 out of 27 patients
  patients upstaged by intraoperative imaging of fluorescent tumors: 7.4%
27 patients, 5 mg/kg ICG
  toxicities, adverse events or deaths related to injection of ICG: no obvious toxicities, adverse events or deaths
[1]
  fraction of ICG binding to serum proteins (albumin, lipoproteins) upon injection into the blood: 95%
[5]; Indocyanine Green for Injection USP
  known toxicity of the agent: no known toxicity
[6]; LLC injected Day 0, 7.5 mg/kg ICG, deposits not visible to un-assisted eye
  earliest day NIR signal from pulmonary metastases detected: 15 days
[6]; by histology
  smallest pulmonary metastatic deposit detected: 0.4 mm
[6]; murine lung
  background fluorescence (mean): 4290 au
[7]; 2 patients, sites greater than 5 cm from primary tumor, confirmed by frozen biopsy
  cancer cases in which fluorescence identified unrecognized metastatic tumor deposits: 8%
[7]; 16 out of 27 cases, 5 mg/kg ICG 24 hours prior to surgery
  cases in which dual camera head could detect tumor fluorescence in vivo: 59%
[7]; Patient #2
  fluorescence of three metastatic sites in right lower pulmonary lobe: > 48,000 au
  smallest metastatic nodule detected, diameter: 0.4 mm
[7]; Patient #24, infiltrative ductal carcinoma
  mean fluorescence of breast mass in the operating room: 52,748 au
[7]; all cases, visual examination
  in vivo fluorescence of normal tissues (skin, muscles, pericardium, heart, aorta, lung, lymph nodes, adipose, nerves, thymus): no tissue fluorescence except the abnormal tumor
[7]; in vivo NIR imaging
  deepest tumor that could be detected, distance from the surface of the organ: ~1 cm
[7]; per case
  Clinical Details: lesion fluorescence: Benign lesion did not glow.
[8]
  mean fluorescence from the tumor: 54,238 au

## CN(C)c1ccc2nc3ccc(=[N+](C)C)cc-3sc2c1 [MB, methylene blue]
[5]; 7.5 mg/kg, e.g. methemoglobinaemia or anaphylaxis
  adverse reactions: sometimes causes severe adverse reactions
